Experimental data: BindingDB's records for doi:10.1016/j.ejmech.2018.01.047 (Cnrs, 2018)

Target: T1, Enoyl-[acyl-carrier-protein] reductase [NADH] (Mycobacterium tuberculosis (strain ATCC 25618 / H37Rv), UniProt P9WGR1)
T1 sequence (P9WGR1 whole entry): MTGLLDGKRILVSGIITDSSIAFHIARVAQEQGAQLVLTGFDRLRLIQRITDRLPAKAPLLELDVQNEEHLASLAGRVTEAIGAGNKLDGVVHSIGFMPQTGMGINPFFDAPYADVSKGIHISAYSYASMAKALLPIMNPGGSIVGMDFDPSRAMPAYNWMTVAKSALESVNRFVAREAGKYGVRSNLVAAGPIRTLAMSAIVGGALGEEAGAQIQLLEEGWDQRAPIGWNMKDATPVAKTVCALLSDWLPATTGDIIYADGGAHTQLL
Assay: Inhibition of Mycobacterium tuberculosis InhA

| Structure (SMILES) | IC50 [nM] |
| --- | --- |
| CCCCCCc1ccc(Oc2ccccc2C#N)c(O)c1 [PT119] | 236 |
| CCCCCCc1ccc(Oc2ccccc2Cl)c(O)c1 [PT91] | 49 |
